Measurements as given in US8822449B2, “Substituted aminoindanes and analogs thereof, and the pharmaceutical use thereof” (Sanofi, priority 2008, dated 2014).

Target: T1, sodium-proton exchanger of subtype 3 (NHE3) (Homo sapiens, UniProt P48764)
T1 construct: expressed in transfected cells
T1 sequence (P48764 26-834): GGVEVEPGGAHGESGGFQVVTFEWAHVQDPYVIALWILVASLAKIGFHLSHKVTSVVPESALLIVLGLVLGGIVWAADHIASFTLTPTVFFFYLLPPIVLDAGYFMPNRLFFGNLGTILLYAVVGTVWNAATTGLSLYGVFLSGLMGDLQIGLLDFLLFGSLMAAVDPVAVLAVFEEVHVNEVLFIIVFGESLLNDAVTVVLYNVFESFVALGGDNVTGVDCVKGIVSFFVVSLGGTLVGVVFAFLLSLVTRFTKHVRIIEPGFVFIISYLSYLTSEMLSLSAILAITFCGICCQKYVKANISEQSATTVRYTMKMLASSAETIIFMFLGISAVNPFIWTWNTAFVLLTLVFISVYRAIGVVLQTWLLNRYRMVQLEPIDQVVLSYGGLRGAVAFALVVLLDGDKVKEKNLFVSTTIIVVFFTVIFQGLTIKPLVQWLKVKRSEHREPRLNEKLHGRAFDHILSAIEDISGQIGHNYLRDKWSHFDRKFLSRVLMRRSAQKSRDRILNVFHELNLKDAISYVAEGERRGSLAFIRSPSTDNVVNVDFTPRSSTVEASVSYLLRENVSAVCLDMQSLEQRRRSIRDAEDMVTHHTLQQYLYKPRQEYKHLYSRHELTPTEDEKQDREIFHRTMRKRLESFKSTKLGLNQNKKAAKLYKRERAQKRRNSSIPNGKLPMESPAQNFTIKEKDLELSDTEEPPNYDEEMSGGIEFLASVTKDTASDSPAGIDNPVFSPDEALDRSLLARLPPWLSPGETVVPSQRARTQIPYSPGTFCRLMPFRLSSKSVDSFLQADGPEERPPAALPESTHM
Assay: Recovery of intracellular pH (pHi) after acidification in LAP1 cells stably expressing NHE3 (BCECF fluorescence, FLIPR)
Assay type: cell-based
Settings: LAP1 cells stably expressing NHE3; pH recovery after acidification; range 1 is % inhibition at 10 μM; read-out: Activity range (inhibitory effect on NHE3)

Compound | inhibition at 10 µM [%] | IC50 [nM]
N#Cc1ccc(CO[C@H]2c3cc(Cl)cc(Cl)c3C[C@@H]2N2CC[C@@H](O)C2)c(F)c1 [Example 482, 4-[(1S,2S)-4,6-dichloro-2-((R)-3-hydroxypyrrolidin-1-yl)indan-1-yloxymethyl]-3-fluorobenzonitrile] | 20 to 50 | 
COCCc1ccc(O[C@H]2c3ccccc3CC[C@@H]2N2CCC[C@@H](N)C2)cc1 (racemic) [Example 115, (R)-1-{rac-trans-(1,2)-1-[4-(2-methoxyethyl)phenoxy]-1,2,3,4-tetrahydronaphthalen-2-yl}piperidin-3-ylamine] | 20 to 50 | 
N[C@@H]1CCCN([C@@H]2Cc3ccccc3[C@H]2Oc2ccc(F)cc2F)C1 (racemic) [Example 33, (R)-1-[rac-trans-(1,2)-1-(2,4-difluorophenoxy)indan-2-yl]piperidin-3-ylamine] |  | 1000 to 10000
CC(=O)Nc1cccc(O[C@H]2c3ccccc3C[C@@H]2N2CCC[C@@H](N)C2)c1 [Example 691, N-{3-[trans-(1S,2S)-2-((R)-3-aminopiperidin-1-yl)indan-1-yloxy]phenyl}acetamide] |  | < 1000
N#Cc1c(F)cccc1O[C@@H]1c2ccccc2C[C@H]1N1CCC(CN)C1 (mixture of isomers) [Example 374, 2-[rac-trans-(1,2)-2-(3-aminomethylpyrrolidin-1-yl)indan-1-yloxy]-6-fluorobenzonitrile] |  | 1000 to 10000
N#Cc1ccc(O[C@H]2c3ccccc3CC[C@@H]2N2CCC[C@@H](N)C2)c(Cl)c1 (racemic) [Example 514, 4-[rac-trans-(1,2)-2-((R)-3-aminopiperidin-1-yl)-1,2,3,4-tetrahydronaphthalen-1-yloxy]-3-chlorobenzonitrile] |  | 1000 to 10000
Cc1nc(C(C)(C)C)cn1-c1ccc(O[C@H]2c3cc(Cl)cc(Cl)c3C[C@@H]2N2CC[C@@H](O)C2)c(F)c1 [Example 729, (R)-1-{trans-(1S,2S)-1-[4-(4-tert-Butyl-2-methyl-imidazol-1-yl)-2-fluoro-phenoxy]-4,6-dichloro-indan-2-yl}-pyrrolidin-3-ol] |  | 1000 to 10000
CN(C)C(=O)Cc1ccc(O[C@H]2c3ccccc3C[C@@H]2N2CCCC2)cc1 (racemic) [Example 634, N,N-dimethyl-2-[4-(rac-trans-(1,2)-2-pyrrolidin-1-ylindan-1-yloxy)phenyl]acetamide] |  | 1000 to 10000
CCOC(=O)c1ncoc1-c1ccc(O[C@H]2c3ccccc3CC[C@@H]2N2CCC[C@@H](N)C2)cc1 (racemic) [Example 583, 5-{4-[rac-trans-(1,2)-2-((R)-3-aminopiperidin-1-yl)-1,2,3,4-tetrahydronaphthalen-1-yloxy]phenyl}oxazole-4-carboxylic acid ethyl ester] |  | 1000 to 10000
CC(=O)Nc1cccc(O[C@H]2c3cc(Cl)ccc3C[C@@H]2N2CCNCC2)c1 (racemic) [Example 657, N-[3-(rac-trans-(1,2)-6-chloro-2-piperazin-1-ylindan-1-yloxy)phenyl]acetamide] |  | 1000 to 10000
N[C@H]1CCCN([C@H]2CCc3ccccc3[C@@H]2Oc2ccc3cc[nH]c3c2)C1 (racemic) [Example 148, (S)-1-[rac-trans-(1,2)-1-(1H-indol-6-yloxy)-1,2,3,4-tetrahydronaphthalen-2-yl]piperidin-3-ylamine] | 20 to 50 | 
COc1cc(Cl)ccc1O[C@H]1c2ccccc2CC[C@@H]1N1CCC[C@@H](N)C1 (racemic) [Example 64, (R)-1-[rac-trans-(1,2)-1-(4-chloro-2-methoxyphenoxy)-1,2,3,4-tetrahydronaphthalen-2-yl]piperidin-3-ylamine] | 20 to 50 | 
NS(=O)(=O)c1ccc(O[C@H]2c3c(Cl)cccc3C[C@@H]2N2CCCC2)cc1 (racemic) [Example 476, 4-(rac-trans-(1,2)-7-chloro-2-pyrrolidin-1-ylindan-1-yloxy)benzenesulfonamide] |  | 1000 to 10000
CN(C)CCCN(C)[C@H]1Cc2ccccc2[C@@H]1Oc1ccc(S(C)(=O)=O)cc1 (racemic) [Example 669, N-[rac-trans-(1,2)-1-(4-methanesulfonylphenoxy)indan-2-yl]-N,N′,N′-trimethylpropane-1,3-diamine] |  | 1000 to 10000
CCn1cnn(-c2ccc(O[C@H]3c4cc(Cl)cc(Cl)c4C[C@@H]3N3CC[C@@H](O)C3)cc2)c1=O [Example 736, 2-{4-[trans-(1S,2S)-4,6-Dichloro-2-((R)-3-hydroxy-pyrrolidin-1-yl)-indan-1-yloxy]-phenyl}-4-ethyl-2,4-dihydro-[1,2,4]triazol-3-one] |  | 1000 to 10000
Cc1ccc(O[C@H]2c3ccccc3CC[C@@H]2N2CCC[C@@H](N)C2)c(Cl)c1 (racemic) [Example 38, (R)-1-[rac-trans-(1,2)-1-(2-chloro-4-methylphenoxy)-1,2,3,4-tetrahydronaphthalen-2-yl]piperidin-3-ylamine] | 20 to 50 | 
CS(=O)(=O)c1ccc(OC2c3ccccc3CC2N2CCC[C@@H](N)C2)c(Cl)c1Cl (mixture of isomers) [Example 31, (R)-1-[rac-trans-(1,2)-1-(2,3-dichloro-4-methanesulfonylphenoxy)indan-2-yl]piperidin-3-ylamine] |  | < 1000
Cc1nnc(C)n1-c1ccc(O[C@H]2c3cc(Cl)cc(Cl)c3C[C@@H]2N2CC[C@H](O)C2)cc1 [Example 206, (S)-1-{trans-(1S,2S)-4,6-dichloro-1-[4-(3,5-dimethyl-[1,2,4]triazol-4-yl)phenoxy]indan-2-yl}pyrrolidin-3-ol] |  | < 1000
CC(=O)Nc1cccc(O[C@H]2c3cccc(Cl)c3C[C@@H]2N2CCCC2)c1 (racemic) [Example 649, N-[3-(rac-trans-(1,2)-4-chloro-2-pyrrolidin-1-ylindan-1-yloxy)phenyl]acetamide] | 20 to 50 | 
Cc1cc(C)n(-c2ccc(O[C@H]3c4cc(Cl)cc(Cl)c4C[C@@H]3N3CC[C@@H](O)C3)c(F)c2)n1 [Example 136, (R)-1-{trans-(1S,2S)-4,6-dichloro-1-[4-(3,5-dimethylpyrazol-1-yl)-2-fluorophenoxy]indan-2-yl}pyrrolidin-3-ol] | 20 to 50 | 
CN1CCN(S(=O)(=O)c2ccc(O[C@H]3c4cc(Cl)cc(Cl)c4C[C@@H]3N3CC[C@@H](O)C3)cc2)CC1 [Example 742, (R)-1-{trans-(1S,2S)-4,6-Dichloro-1-[4-(4-methyl-piperazine-1-sulfonyl)-phenoxy]-indan-2-yl}-pyrrolidin-3-ol] |  | 1000 to 10000
O=c1ocnn1-c1ccc(O[C@H]2c3cc(Cl)cc(Cl)c3C[C@@H]2N2CC[C@@H](O)C2)cc1 [Example 735, 3-{4-[trans-(1S,2S)-4,6-Dichloro-2-((R)-3-hydroxy-pyrrolidin-1-yl)-indan-1-yloxy]-phenyl}-3H-[1,3,4]oxadiazol-2-one] |  | 1000 to 10000
Cc1nnc(C)n1-c1ccc(O[C@H]2c3cc(Cl)cc(Cl)c3C[C@@H]2N2CC[C@H](O)C2)c(F)c1 [Example 200, (S)-1-{(1S,2S)-4,6-dichloro-1-[4-(3,5-dimethyl-[1,2,4]triazol-4-yl)-2-fluorophenoxy]indan-2-yl}pyrrolidin-3-ol] |  | < 1000
Cc1nnc(C)n1-c1ccc(O[C@H]2c3cc(Cl)ccc3C[C@@H]2N2CC[C@@H](O)C2)c(Cl)c1 [Example 139, (R)-1-{trans-(1S,2S)-6-chloro-1-[2-chloro-4-(3,5-dimethyl-[1,2,4]triazol-4-yl)phenoxy]indan-2-yl}pyrrolidin-3-ol] |  | < 1000
